Measurements: patent US20120058997A1, “IMIDAZO[1,2-B]PYRIDAZINE AND PYRAZOLO[1,5-A]PYRIMIDINE DERIVATIVES AND THEIR USE AS PROTEIN KINASE INHIBITORS” (SuperGen, Inc., priority 2006, published 2012)
Where two headings read alike, the source gives them in different places. Blank lines part the entries; values can stand above or below the compound they belong to.

How the values were obtained:
Pim-1 kinase = Pim-1 kinase (Homo sapiens, UniProt P11309); assay: Promega Kinase-Glo Pim-1 kinase inhibition assay; type: biochemical;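 further: in vitro Pim-1 reaction run 2 h at 30 °C, then leftover ATP measured by luciferase luminescence, where signal falls as kinase activity rises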
[1] = system: phospho-Bad (S112) in MV-4-11 cells; assay: phospho-Bad (S112) Western blot in MV-4-11 cells; type: cell-based; details: Homo sapiens, MV4-11, 1 hr treatment, HCl salts, read-out: EC50 on phosphorylation of Bad (S112)
Source text: One illustrative manner to determine the effect of Pim-1 inhibitors on the activity of the Pim-1 kinase is to measure the phosphorylation levels of the protein Bad at serine residue 112 (S112) (phospho-Bad or pBad). Pim-1 is known to cause the phosphorylation of Bad at S112 in order to inactivate the protein and inhibit its association with anti-apoptotic Bcl-2 family members, thereby allowing these Bcl-2 family members to further inhibit apoptotic signals.
Briefly, MV-4-11 (biphenotypic B myelomonocytic leukemia) cells were plated into T25 flasks in serum free media (SFM) at 1.5×10^5 cells/ml and allowed to grow for 24 hrs. After 24 hrs Pim-1 inhibitors at 10, 5, 1, 0.5, 0.1, or 0.01 μM concentrations were added to individual flasks. Treatment with the Pim-1 inhibitors continued for a duration of 1 hr. Cells were harvested after the 1 hr treatment and cell lysates were made from each sample. Equal amounts of total protein from the lysates were loaded onto a 10% Tris-glycine gel (Invitrogen) for SDS-PAGE analysis. […] In order to calculate the EC50 of inhibitors on phosphorylation of Bad (S112), the levels of total Bad protein were determined. […] Densitometry was used to quantitate the levels of each band on the Western blots and used to determine the EC50 of the Pim-1 inhibitors to alter the phospho-Bad protein levels.

K562 Cells = assay: Cell growth inhibition, Cell-Titer-Glo, 96 hours; type: cell-based;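 further: luminescent ATP signal as an index of viable cell number, drug-treated versus cells given an equal volume of DMSO vehicle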
Plk3 = Plk3 (Homo sapiens, UniProt Q9H4B4); assay: Radiometric kinase panel selectivity assay; type: biochemical; parameters: dose or concentration left out as unconfirmed
Aurora-A = target: T1, Aurora-A (Homo sapiens, UniProt O14965); assay: Radiometric kinase panel selectivity assay; type: biochemical; parameters: dose or concentration left out as unconfirmed
T1 sequence (O14965 1-403): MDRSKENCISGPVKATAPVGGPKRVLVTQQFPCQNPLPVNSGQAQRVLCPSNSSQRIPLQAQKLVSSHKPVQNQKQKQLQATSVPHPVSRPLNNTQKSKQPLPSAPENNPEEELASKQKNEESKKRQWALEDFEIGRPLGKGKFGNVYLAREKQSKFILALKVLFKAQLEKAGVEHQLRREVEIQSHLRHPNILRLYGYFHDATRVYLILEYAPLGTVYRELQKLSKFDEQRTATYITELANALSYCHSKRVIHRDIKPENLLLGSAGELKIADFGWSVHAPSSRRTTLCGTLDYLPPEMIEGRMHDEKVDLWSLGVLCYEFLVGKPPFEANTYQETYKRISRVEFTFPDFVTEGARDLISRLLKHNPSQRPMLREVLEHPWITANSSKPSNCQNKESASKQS

EGFR = EGFR (Homo sapiens, UniProt P00533); assay: Radiometric kinase panel selectivity assay; type: biochemical; parameters: dose or concentration left out as unconfirmed
PC-3 Cells = assay: Cell growth inhibition, Cell-Titer-Glo, 96 hours; type: cell-based;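 further: luciferase luminescence reflecting cellular ATP, used as a proxy for cell number, with compound-treated cells compared against DMSO vehicle control wells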
c-Kit = c-Kit (Homo sapiens, UniProt P10721); assay: Radiometric kinase panel selectivity assay; type: biochemical; parameters: dose or concentration left out as unconfirmed
Nek2 = target: T2, Nek2 (Homo sapiens, UniProt P51955); assay: Radiometric kinase panel selectivity assay; type: biochemical; parameters: dose or concentration left out as unconfirmed
T2 sequence (P51955 1-445): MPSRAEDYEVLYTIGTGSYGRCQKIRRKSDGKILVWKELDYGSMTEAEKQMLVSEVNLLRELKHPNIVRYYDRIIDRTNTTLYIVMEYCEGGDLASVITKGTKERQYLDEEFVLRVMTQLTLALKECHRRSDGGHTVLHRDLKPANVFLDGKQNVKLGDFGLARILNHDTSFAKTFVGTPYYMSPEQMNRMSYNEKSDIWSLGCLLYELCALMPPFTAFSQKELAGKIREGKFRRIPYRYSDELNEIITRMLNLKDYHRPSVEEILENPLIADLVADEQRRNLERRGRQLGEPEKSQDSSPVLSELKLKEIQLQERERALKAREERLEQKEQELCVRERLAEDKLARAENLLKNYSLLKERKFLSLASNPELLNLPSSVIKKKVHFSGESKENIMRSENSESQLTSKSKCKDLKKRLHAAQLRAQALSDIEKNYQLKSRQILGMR

Jak2 = Jak2 (Homo sapiens, UniProt O60674); assay: Radiometric kinase panel selectivity assay; type: biochemical; parameters: dose or concentration left out as unconfirmed
Able = Able (Homo sapiens, UniProt P00519); assay: Radiometric kinase panel selectivity assay; type: biochemical; parameters: dose or concentration left out as unconfirmed
CDK1 = CDK1 (Homo sapiens, UniProt P06493); assay: Radiometric kinase panel selectivity assay; type: biochemical; parameters: dose or concentration left out as unconfirmed
CDK2 = CDK2 (Homo sapiens, UniProt P24941); assay: Radiometric kinase panel selectivity assay; type: biochemical; parameters: dose or concentration left out as unconfirmed
[2] = Homo sapiens, K562, Table IX (results), read-out: IC50 (K562)
[3] = Homo sapiens, Table IX (results), read-out: IC50 (PC-3)
[4] = Table VIII (results), values in uM, read-out: IC50(Kinase)

Chain of Pim-1 kinase (P11309 whole entry): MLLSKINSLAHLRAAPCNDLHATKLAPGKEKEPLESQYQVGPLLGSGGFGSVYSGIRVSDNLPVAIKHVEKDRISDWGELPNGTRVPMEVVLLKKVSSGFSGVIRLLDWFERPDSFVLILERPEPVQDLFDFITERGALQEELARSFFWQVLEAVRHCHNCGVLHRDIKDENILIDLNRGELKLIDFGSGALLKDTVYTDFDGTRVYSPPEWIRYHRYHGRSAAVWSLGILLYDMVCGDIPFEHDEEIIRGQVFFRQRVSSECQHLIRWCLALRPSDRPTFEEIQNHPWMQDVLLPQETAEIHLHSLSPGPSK
Chain of c-Kit (P10721 26-976): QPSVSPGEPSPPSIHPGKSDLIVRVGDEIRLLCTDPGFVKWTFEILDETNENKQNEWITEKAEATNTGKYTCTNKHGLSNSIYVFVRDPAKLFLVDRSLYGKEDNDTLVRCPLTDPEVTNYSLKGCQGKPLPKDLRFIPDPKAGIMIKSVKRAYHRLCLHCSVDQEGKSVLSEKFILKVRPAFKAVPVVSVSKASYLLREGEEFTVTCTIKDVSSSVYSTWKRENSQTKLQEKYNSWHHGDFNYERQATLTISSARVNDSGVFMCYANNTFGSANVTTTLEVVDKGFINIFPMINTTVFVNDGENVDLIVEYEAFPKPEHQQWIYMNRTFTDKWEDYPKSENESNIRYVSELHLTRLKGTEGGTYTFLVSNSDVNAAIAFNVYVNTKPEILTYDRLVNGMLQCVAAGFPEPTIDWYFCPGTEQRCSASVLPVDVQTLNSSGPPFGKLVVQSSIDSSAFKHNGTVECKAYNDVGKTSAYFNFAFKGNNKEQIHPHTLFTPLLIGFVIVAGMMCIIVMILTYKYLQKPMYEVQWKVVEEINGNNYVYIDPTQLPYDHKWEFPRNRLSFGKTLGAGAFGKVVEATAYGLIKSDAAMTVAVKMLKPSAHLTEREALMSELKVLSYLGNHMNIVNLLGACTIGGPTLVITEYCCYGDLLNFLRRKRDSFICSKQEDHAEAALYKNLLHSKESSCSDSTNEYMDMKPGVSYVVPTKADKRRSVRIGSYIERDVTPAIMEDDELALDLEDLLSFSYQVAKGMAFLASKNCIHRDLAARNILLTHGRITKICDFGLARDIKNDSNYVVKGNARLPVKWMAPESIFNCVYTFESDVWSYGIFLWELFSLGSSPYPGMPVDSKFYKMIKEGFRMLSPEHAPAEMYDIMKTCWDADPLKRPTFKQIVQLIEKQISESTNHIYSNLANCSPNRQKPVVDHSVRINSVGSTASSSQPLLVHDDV
Chain of Plk3 (Q9H4B4 whole entry, species assumed): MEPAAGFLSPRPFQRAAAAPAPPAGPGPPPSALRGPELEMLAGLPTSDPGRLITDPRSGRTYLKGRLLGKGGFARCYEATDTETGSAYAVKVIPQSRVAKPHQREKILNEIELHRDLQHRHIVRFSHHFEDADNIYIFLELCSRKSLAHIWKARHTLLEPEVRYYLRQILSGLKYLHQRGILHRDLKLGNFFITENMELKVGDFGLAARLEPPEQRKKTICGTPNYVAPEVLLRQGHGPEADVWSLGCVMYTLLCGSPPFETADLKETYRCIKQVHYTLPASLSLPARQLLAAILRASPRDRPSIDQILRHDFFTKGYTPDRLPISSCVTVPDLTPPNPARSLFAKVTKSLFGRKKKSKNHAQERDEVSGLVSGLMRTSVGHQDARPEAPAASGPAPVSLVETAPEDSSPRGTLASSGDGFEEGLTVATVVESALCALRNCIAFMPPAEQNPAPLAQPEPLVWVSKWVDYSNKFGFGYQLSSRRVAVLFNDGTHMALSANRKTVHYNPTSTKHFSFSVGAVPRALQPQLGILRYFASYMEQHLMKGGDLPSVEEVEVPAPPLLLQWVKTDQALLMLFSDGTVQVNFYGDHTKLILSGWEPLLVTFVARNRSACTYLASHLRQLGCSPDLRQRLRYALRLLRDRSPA
Chain of EGFR (P00533 25-1210, species assumed): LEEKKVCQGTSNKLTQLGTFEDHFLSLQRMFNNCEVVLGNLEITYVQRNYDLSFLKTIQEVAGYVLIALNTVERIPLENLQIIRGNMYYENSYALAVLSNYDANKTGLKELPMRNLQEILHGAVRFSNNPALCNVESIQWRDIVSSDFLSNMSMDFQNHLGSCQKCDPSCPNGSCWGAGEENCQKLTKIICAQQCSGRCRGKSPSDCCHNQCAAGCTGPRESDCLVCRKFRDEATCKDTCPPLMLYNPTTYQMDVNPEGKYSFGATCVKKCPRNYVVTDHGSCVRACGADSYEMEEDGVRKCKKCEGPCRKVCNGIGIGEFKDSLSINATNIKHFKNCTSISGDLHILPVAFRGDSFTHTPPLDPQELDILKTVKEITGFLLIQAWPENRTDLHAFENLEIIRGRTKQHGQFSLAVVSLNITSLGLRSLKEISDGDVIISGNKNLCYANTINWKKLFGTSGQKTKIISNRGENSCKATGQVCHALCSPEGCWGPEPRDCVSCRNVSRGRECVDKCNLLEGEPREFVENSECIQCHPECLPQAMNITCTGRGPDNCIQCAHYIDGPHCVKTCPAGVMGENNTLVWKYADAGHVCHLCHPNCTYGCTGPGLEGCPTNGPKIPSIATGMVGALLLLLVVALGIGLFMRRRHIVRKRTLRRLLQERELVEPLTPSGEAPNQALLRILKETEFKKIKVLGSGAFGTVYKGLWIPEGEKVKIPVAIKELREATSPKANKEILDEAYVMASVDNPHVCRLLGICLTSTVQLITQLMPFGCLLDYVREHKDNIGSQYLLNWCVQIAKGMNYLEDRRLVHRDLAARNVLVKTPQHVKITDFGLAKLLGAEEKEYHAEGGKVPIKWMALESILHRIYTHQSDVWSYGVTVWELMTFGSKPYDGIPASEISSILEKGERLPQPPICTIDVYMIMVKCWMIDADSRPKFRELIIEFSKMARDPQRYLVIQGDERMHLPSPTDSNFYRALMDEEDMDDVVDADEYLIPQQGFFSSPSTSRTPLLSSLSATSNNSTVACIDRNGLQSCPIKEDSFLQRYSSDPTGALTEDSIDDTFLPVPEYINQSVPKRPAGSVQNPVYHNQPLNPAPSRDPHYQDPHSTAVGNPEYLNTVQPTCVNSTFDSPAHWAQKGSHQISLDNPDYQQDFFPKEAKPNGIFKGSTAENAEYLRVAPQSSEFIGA
Chain of Able (P00519 whole entry): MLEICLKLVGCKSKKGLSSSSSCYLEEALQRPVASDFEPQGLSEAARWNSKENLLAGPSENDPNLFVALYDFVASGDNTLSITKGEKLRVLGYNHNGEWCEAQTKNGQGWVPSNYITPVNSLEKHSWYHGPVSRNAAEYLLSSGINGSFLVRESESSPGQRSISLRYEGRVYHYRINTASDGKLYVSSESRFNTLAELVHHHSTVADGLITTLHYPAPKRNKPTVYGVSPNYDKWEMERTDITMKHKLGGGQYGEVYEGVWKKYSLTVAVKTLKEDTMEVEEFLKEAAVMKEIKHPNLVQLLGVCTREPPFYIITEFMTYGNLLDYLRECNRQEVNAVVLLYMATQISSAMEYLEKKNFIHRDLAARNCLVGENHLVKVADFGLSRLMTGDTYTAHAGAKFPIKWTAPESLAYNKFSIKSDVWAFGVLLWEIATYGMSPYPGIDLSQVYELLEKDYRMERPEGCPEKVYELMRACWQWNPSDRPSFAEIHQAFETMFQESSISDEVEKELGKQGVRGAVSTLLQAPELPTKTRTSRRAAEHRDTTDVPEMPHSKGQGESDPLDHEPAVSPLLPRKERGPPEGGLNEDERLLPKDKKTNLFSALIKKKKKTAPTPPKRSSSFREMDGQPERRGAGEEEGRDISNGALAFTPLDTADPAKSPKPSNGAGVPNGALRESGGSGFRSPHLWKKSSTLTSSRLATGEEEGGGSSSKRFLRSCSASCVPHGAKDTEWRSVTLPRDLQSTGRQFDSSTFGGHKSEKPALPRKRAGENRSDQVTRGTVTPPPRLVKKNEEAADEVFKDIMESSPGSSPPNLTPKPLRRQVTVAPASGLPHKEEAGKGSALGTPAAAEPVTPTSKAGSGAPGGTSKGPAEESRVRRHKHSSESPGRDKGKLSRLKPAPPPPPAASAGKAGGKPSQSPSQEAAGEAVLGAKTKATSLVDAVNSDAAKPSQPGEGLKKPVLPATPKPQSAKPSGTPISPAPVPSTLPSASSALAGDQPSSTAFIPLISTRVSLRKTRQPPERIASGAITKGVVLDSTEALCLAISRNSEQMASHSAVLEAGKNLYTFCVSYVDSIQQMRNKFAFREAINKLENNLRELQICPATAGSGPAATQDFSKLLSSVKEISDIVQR
Chain of CDK1 (P06493 whole entry, species assumed): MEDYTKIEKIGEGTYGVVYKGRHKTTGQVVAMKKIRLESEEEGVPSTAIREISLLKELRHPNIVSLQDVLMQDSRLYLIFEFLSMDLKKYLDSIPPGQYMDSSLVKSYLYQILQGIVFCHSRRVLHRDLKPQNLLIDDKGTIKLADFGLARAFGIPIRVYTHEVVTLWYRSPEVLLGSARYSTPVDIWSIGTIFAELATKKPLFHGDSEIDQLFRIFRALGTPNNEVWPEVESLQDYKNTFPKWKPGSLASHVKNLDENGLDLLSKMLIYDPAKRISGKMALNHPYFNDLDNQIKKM
Chain of CDK1 (P14635 whole entry partner, species assumed): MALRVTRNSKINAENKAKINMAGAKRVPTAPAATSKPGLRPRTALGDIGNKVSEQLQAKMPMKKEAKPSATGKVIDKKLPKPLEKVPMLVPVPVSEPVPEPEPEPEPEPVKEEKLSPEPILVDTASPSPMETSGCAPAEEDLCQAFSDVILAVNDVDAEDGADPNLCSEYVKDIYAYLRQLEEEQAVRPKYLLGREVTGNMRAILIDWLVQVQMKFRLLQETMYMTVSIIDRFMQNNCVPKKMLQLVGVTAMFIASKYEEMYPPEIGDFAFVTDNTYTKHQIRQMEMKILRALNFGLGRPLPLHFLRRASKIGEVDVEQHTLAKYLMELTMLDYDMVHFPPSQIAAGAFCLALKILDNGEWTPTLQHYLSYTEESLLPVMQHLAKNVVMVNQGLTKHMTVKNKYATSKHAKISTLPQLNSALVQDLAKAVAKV

IC50 (Pim-1 kinase; Table VIII (results), values in nM, read-out: IC50(Kinase)): 293 nM
EC50 [1]: 0.635 µM
IC50 (K562 Cells; [2]): 5.84 µM
SMILES: CC[C@H](N)COc1ccc2ncc(-c3cccc(OC(F)(F)F)c3)n2n1 [Compound 7-19, (S)-1-(3-(3-(trifluoromethoxy)phenyl)imidazo[1,2-b]pyridazin-6-yloxy)butan-2-amine]

SMILES: CN1CCC(CNc2ccc3ncc(-c4cccc(OC(F)(F)F)c4)n3n2)CC1 [Compound 7-29]
activity against Plk3 (Plk3): no significant activity
activity against Aurora-A (Aurora-A): no significant activity
activity against EGFR (EGFR): no significant activity
IC50 (PC-3 Cells; [3]): 4.83 µM
activity against c-Kit (c-Kit): no significant activity
activity against Nek2 (Nek2): no significant activity
activity against Jak2 (Jak2): no significant activity
activity against Able (Able): no significant activity
EC50 [1]: 0.0079 µM
activity against CDK1 (CDK1): no significant activity
activity against CDK2 (CDK2): no significant activity
IC50 (K562 Cells; Homo sapiens, Table IX (results), read-out: IC50 (K562)): 2.29 µM

IC50 (PC-3 Cells; [3]): 29.2 µM
IC50 (PC-3 Cells; Homo sapiens, read-out: IC50 PC-3 Cells (inhibit cell growth to 50% of untreated), Table VI): 29.2 µM
IC50 (Pim-1 kinase; IC50 (Kinase inhibitory activity), Table V, Pim-1 kinase, Kinase-Glo): 3990 nM
IC50 (Pim-1 kinase; [4]): 3990 nM
IC50 (K562 Cells; [2]): 67.1 µM
IC50 (K562 Cells; Homo sapiens, K562, read-out: IC50 K562 Cells (inhibit cell growth to 50% of untreated), Table VI): 67.1 µM
SMILES: CCC(CO)Nc1ccc2ncc(-c3ccc(N(C)C)cc3)n2n1 (stereo not drawn) [Compound 7-1]

IC50 (PC-3 Cells; Table IX (results), read-out: IC50 (PC-3)): 54.6 µM
IC50 (Pim-1 kinase; [4]): 1810 nM
IC50 (K562 Cells; Table IX (results), read-out: IC50 (K562)): 13.6 µM
SMILES: CN(C)c1cccc(-c2cnc3ccc(NCCCCO)nn23)c1 [Compound 7-4, 12-(3-(3-(dimethylamino)phenyl)imidazo[1,2-b]pyridazin-6-ylamino)butan-1-ol]
